The values below come from doi:10.1101/2024.10.28.620768v1 (biorxiv, 2024).

The target in this experiment is Cdr1 (Candida albicans, UniProt Q5ANA3). Kind of experiment: microscale thermophoresis, Alexa Fluor 647-labelled Cdr1, Hill fit. It counts as binding.
Sequence of Cdr1 (Q5ANA3 whole entry): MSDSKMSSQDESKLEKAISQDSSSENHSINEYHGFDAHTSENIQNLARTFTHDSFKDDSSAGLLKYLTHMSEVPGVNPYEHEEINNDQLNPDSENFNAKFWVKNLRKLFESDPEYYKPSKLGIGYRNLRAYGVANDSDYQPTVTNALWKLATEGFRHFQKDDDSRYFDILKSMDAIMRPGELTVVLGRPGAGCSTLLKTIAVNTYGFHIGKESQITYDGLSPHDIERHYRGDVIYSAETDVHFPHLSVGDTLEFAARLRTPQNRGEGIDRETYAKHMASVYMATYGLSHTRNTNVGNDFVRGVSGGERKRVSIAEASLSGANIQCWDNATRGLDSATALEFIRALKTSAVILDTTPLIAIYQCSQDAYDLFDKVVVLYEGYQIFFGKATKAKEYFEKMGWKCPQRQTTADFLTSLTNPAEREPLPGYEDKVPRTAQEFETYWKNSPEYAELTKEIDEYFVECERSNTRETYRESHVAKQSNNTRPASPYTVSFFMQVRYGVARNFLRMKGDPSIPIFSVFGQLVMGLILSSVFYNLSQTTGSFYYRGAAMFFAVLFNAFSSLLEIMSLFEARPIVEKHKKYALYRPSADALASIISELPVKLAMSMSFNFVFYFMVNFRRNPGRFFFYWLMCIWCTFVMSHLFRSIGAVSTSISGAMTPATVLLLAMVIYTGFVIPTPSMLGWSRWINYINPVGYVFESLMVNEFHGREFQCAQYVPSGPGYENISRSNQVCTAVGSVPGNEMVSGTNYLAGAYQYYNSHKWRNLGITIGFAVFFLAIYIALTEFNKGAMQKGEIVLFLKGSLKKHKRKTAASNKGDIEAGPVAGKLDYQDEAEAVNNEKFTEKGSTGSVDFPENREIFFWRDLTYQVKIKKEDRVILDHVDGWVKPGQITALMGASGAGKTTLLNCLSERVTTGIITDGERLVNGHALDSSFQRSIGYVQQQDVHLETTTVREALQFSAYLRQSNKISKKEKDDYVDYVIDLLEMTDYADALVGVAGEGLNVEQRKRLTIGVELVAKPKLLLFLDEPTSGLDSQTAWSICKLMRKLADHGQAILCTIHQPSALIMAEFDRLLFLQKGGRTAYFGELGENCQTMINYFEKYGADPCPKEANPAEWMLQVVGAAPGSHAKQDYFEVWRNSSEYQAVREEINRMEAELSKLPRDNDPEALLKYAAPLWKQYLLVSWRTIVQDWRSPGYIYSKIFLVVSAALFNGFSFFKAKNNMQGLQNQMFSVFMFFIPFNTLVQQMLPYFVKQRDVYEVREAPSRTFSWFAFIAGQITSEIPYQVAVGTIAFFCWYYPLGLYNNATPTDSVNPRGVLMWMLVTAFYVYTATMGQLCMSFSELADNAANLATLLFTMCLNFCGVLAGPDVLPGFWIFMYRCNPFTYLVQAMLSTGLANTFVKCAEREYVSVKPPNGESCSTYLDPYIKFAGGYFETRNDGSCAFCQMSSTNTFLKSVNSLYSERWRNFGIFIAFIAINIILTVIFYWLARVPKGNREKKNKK

In turn, `CCN=c1cc2oc3cc(NCC)c(C)cc3c(-c3ccccc3C(=O)OCC)c-2cc1C` [Rhodamine 6G] returned a Kd of 59.8 ± 7.1 µM.
The value for `O=C1OC2(c3cc(F)c(O)cc3Oc3cc(O)c(F)cc32)c2ccccc21` [Oregon Green 488] was 32.8 ± 8.2 µM.
